PubChem BioAssay AID256 (DTP/NCI, 2004)
“And” between values parts separate entries of the source, which are not always exact repeats. Equal values may be shown once. Toxic doses and inconclusive results are not listed. The calls were made as follows: active = survival T/C of 150% or more; inactive = T/C below 125% in these data. Non-standard residues stand in square brackets, D forms with d. Residues, ends and D or L forms follow the SMILES beside them. ξ: configuration not given here. *: point of attachment. Cbz = O=C(OCc1ccccc1)*; ξV = CC(C)C(N)C(=O)O

System: CD2F1 mice, L1210 leukemia ip, survival T/C
Assay: NCI In Vivo Anticancer Drug Screen. Data for tumor model L1210 Leukemia (intraperitoneal) in CD2F1 (CDF1) mice
Settings: higher = longer survival
In short: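 Tumor-bearing mice (transplanted tumor) were split into treated and vehicle control groups, and the measured endpoint of each treated group was divided by that of its vehicle controls.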

[1] = endpoint: mean survival time, dose: 50.0 mg/kg/injection, schedule: Q01DX001 (ip), vehicle: Klucel (hydroxypropylcellulose) (HPC)
[2] = endpoint: mean survival time, dose: 100.0 mg/kg/injection, schedule: Q01DX001 (ip), vehicle: Klucel (hydroxypropylcellulose) (HPC)
[3] = endpoint: mean survival time, dose: 200.0 mg/kg/injection, schedule: Q01DX001 (ip), vehicle: Klucel (hydroxypropylcellulose) (HPC)
[4] = endpoint: mean survival time, dose: 100.0 mg/kg/injection, schedule: Q04DX003 (ip), vehicle: saline with Tween-80
[5] = endpoint: mean survival time, dose: 200.0 mg/kg/injection, schedule: Q04DX003 (ip), vehicle: saline with Tween-80
[6] = endpoint: mean survival time, dose: 400.0 mg/kg/injection, schedule: Q04DX003 (ip), vehicle: saline with Tween-80
[7] = endpoint: mean survival time, dose: 100.0 mg/kg/injection, schedule: Q01DX009 (ip), vehicle: saline with Tween-80
[8] = endpoint: mean survival time, dose: 200.0 mg/kg/injection, schedule: Q01DX009 (ip), vehicle: saline with Tween-80
[9] = endpoint: mean survival time, dose: 400.0 mg/kg/injection, schedule: Q01DX009 (ip), vehicle: saline with Tween-80
[10] = endpoint: mean survival time, dose: 100.0 mg/kg/injection, schedule: Q04DX002 (ip), vehicle: saline with Tween-80
[11] = endpoint: mean survival time, dose: 200.0 mg/kg/injection, schedule: Q04DX002 (ip), vehicle: saline with Tween-80
[12] = endpoint: mean survival time, dose: 400.0 mg/kg/injection, schedule: Q04DX002 (ip), vehicle: saline with Tween-80

Measured: T/C

NC(=O)c1[nH]nc(C2OC(CO)C(O)C2O)c1O (centres undefined)
inactive: endpoint: mean survival time, dose: 0.25 mg/kg/injection, schedule: Q04DX003 (ip), vehicle: saline 105 % of control | endpoint: mean survival time, dose: 0.5 mg/kg/injection, schedule: Q04DX003 (ip), vehicle: saline 97 % of control | endpoint: mean survival time, dose: 1.0 mg/kg/injection, schedule: Q04DX003 (ip), vehicle: saline 96 % of control | endpoint: mean survival time, dose: 2.0 mg/kg/injection, schedule: Q04DX003 (ip), vehicle: saline 97 % of control | endpoint: median survival time, dose: 0.25 mg/kg/injection, schedule: Q01DX009 (ip), vehicle: saline 98 % of control | endpoint: median survival time, dose: 0.5 mg/kg/injection, schedule: Q01DX009 (ip), vehicle: saline 111 % of control | endpoint: median survival time, dose: 1.0 mg/kg/injection, schedule: Q01DX009 (ip), vehicle: saline 121 % of control | endpoint: median survival time, dose: 1.0 mg/kg/injection, schedule: Q04DX003 (ip), vehicle: saline 102 % of control | endpoint: median survival time, dose: 1.88 mg/kg/injection, schedule: Q04DX003 (ip), vehicle: saline 117 % of control | endpoint: median survival time, dose: 2.0 mg/kg/injection, schedule: Q01DX009 (ip), vehicle: saline 120 % of control | endpoint: median survival time, dose: 3.75 mg/kg/injection, schedule: Q04DX003 (ip), vehicle: saline 110 % of control | endpoint: median survival time, dose: 4.0 mg/kg/injection, schedule: Q01DX009 (ip), vehicle: saline 110 % of control | endpoint: median survival time, dose: 7.5 mg/kg/injection, schedule: Q04DX003 (ip), vehicle: saline 116 % of control | endpoint: median survival time, dose: 8.0 mg/kg/injection, schedule: Q01DX009 (ip), vehicle: saline 88 % of control | endpoint: median survival time, dose: 8.0 mg/kg/injection, schedule: Q04DX003 (ip), vehicle: saline 117 % of control and 120 % of control | endpoint: median survival time, dose: 15.0 mg/kg/injection, schedule: Q04DX003 (ip), vehicle: saline 118 % of control | endpoint: median survival time, dose: 16.0 mg/kg/injection, schedule: Q01DX009 (ip), vehicle: saline 101 % of control | endpoint: median survival time, dose: 16.0 mg/kg/injection, schedule: Q04DX003 (ip), vehicle: saline 111 % of control | endpoint: median survival time, dose: 30.0 mg/kg/injection, schedule: Q04DX003 (ip), vehicle: saline 97 % of control | endpoint: median survival time, dose: 32.0 mg/kg/injection, schedule: Q04DX003 (ip), vehicle: saline 118 % of control

COC(=O)C(C(=O)OC(C)C)C(=O)OC(C)C
inactive: [1] 105 % of control | [2] 96 % of control | [3] 99 % of control

CC(=O)NS(=O)(=O)c1ccc([NH-])cc1.CC(=O)NS(=O)(=O)c1ccc([NH-])cc1.[I][Pt+2][I]
inactive: endpoint: mean survival time, dose: 25.0 mg/kg/injection, schedule: Q04DX003 (ip), vehicle: saline with Tween-80 96 % of control | endpoint: mean survival time, dose: 50.0 mg/kg/injection, schedule: Q04DX003 (ip), vehicle: saline with Tween-80 94 % of control | [4] 107 % of control | [5] 100 % of control | [6] 103 % of control

N#Cc1nc2c(nc1N)CCCCCCCCCC2
inactive: [2] 87 % of control | [3] 87 % of control | endpoint: mean survival time, dose: 400.0 mg/kg/injection, schedule: Q01DX001 (ip), vehicle: Klucel (hydroxypropylcellulose) (HPC) 87 % of control

COC(=O)c1cc(NC(=O)Nc2cc([N+](=O)[O-])ccc2Cl)cc(C(=O)OC)c1
inactive: endpoint: mean survival time, dose: 50.0 mg/kg/injection, schedule: Q01DX001 (ip), vehicle: saline 92 % of control | endpoint: mean survival time, dose: 100.0 mg/kg/injection, schedule: Q01DX001 (ip), vehicle: saline 86 % of control and 94 % of control | [7] 89 % of control and 95 % of control | endpoint: mean survival time, dose: 100.0 mg/kg/injection, schedule: Q04DX002 (ip), vehicle: saline 96 % of control | endpoint: mean survival time, dose: 100.0 mg/kg/injection, schedule: Q04DX003 (ip), vehicle: saline 95 % of control | endpoint: mean survival time, dose: 200.0 mg/kg/injection, schedule: Q01DX001 (ip), vehicle: saline 89 % of control | [8] 95 % of control and 102 % of control | endpoint: mean survival time, dose: 200.0 mg/kg/injection, schedule: Q04DX002 (ip), vehicle: saline 93 % of control and 107 % of control | endpoint: mean survival time, dose: 200.0 mg/kg/injection, schedule: Q04DX003 (ip), vehicle: saline 102 % of control | endpoint: mean survival time, dose: 400.0 mg/kg/injection, schedule: Q01DX001 (ip), vehicle: saline 88 % of control | [9] 102 % of control and 103 % of control | endpoint: mean survival time, dose: 400.0 mg/kg/injection, schedule: Q04DX002 (ip), vehicle: saline 91 % of control and 96 % of control | endpoint: mean survival time, dose: 400.0 mg/kg/injection, schedule: Q04DX003 (ip), vehicle: saline 96 % of control

OCC1CC=CCC1 (centres undefined)
inactive: [4] 97 % of control | [5] 90 % of control | [6] 95 % of control

COC(=O)C(NC(=O)CNC(=O)OCc1ccccc1)C(C)C (stereo not drawn) (Cbz-Gly-[ξV]-OMe)
inactive: [4] 100 % of control | [5] 97 % of control | [6] 99 % of control

CCOC(=O)CSCC(=O)C(C)(C)C
inactive: endpoint: mean survival time, dose: 100.0 mg/kg/injection, schedule: Q01DX001 (ip), vehicle: saline with Tween-80 98 % of control | endpoint: mean survival time, dose: 200.0 mg/kg/injection, schedule: Q01DX001 (ip), vehicle: saline with Tween-80 98 % of control | endpoint: mean survival time, dose: 400.0 mg/kg/injection, schedule: Q01DX001 (ip), vehicle: saline with Tween-80 102 % of control

Nc1nc2nc[n-]c2c(=O)[nH]1.[NH2-].[NH2-].[NH2-].[NH2-].[NH2-].[Ru+6]
inactive: endpoint: mean survival time, dose: 6.25 mg/kg/injection, schedule: Q04DX003 (ip), vehicle: water 96 % of control | endpoint: mean survival time, dose: 12.5 mg/kg/injection, schedule: Q04DX003 (ip), vehicle: water 96 % of control | endpoint: mean survival time, dose: 25.0 mg/kg/injection, schedule: Q04DX003 (ip), vehicle: water 102 % of control

Nc1ncnc(N)c1NC(=O)c1ccc(CCCCc2ccccc2)cc1
inactive: [4] 104 % of control | [5] 96 % of control | [6] 92 % of control

O=C(Nc1ccc(F)c(Cl)c1)Oc1ccc(F)cc1Cl
inactive: [7] 103 % of control | [8] 104 % of control | [9] 92 % of control

COc1ccc(COC(=O)Nc2ccc(C)cc2)cc1
inactive: endpoint: mean survival time, dose: 50.0 mg/kg/injection, schedule: Q04DX002 (ip), vehicle: saline with Tween-80 100 % of control | [10] 100 % of control | [11] 96 % of control

NC(CSSc1ccccc1)=NC1CCCCC1
inactive: endpoint: mean survival time, dose: 12.5 mg/kg/injection, schedule: Q01DX001 (ip), vehicle: Klucel (hydroxypropylcellulose) (HPC) 97 % of control | endpoint: mean survival time, dose: 25.0 mg/kg/injection, schedule: Q01DX001 (ip), vehicle: Klucel (hydroxypropylcellulose) (HPC) 92 % of control | [1] 97 % of control

Cc1ccc(OC(=O)Nc2cc([N+](=O)[O-])ccc2[N+](=O)[O-])cc1
inactive: [10] 100 % of control | [11] 100 % of control | [12] 92 % of control

Cc1ccc(NC(=O)N2CCN(C)CC2)cc1[N+](=O)[O-]
inactive: endpoint: mean survival time, dose: 50.0 mg/kg/injection, schedule: Q01DX009 (ip), vehicle: saline with Tween-80 94 % of control | [7] 90 % of control | [8] 94 % of control

N#CC(=C=[N-])[n+]1ccccc1
inactive: endpoint: mean survival time, dose: 12.5 mg/kg/injection, schedule: Q04DX003 (ip), vehicle: Klucel (hydroxypropylcellulose) (HPC) 98 % of control | endpoint: mean survival time, dose: 25.0 mg/kg/injection, schedule: Q04DX003 (ip), vehicle: Klucel (hydroxypropylcellulose) (HPC) 100 % of control

COc1ccc(COC(=O)Nc2ccccc2[N+](=O)[O-])cc1
inactive: [10] 91 % of control | [11] 87 % of control | [12] 91 % of control

Cc1cc[n+]([O-])c(N(C(=O)c2ccccc2)C(=O)c2ccccc2)c1
inactive: [7] 98 % of control | [4] 95 % of control | [8] 102 % of control | [5] 103 % of control | [9] 107 % of control | [6] 97 % of control

CC(=O)OC(C(=O)N(c1ccccc1)c1ccccc1)c1ccccc1 (centres undefined)
inactive: [4] 100 % of control | [5] 94 % of control | [6] 108 % of control

CCCCCC/C=N\N=C(N)N
inactive: endpoint: mean survival time, dose: 75.0 mg/kg/injection, schedule: Q01DX001 (ip), vehicle: saline 103 % of control
